How the values were obtained:
[1] = test system: wild oat; experiment: Test C preemergence; assay type: in vivo, Avena fatua; conditions: for Oat, Wild plant response rating: preemergence, scale 0 (no effect) to 100 (complete control)
From the text: (§1) Seeds of plant species selected from blackgrass (Alopecurus myosuroides), Italian ryegrass (Lolium multiflorum), wheat, winter (winter wheat, Triticum aestivum), galium (catchweed bedstraw, Galium aparine), corn (Zea mays), large (Lg) crabgrass (Digitaria sanguinalis), giant foxtail (Setaria faberii), johnsongrass (Sorghum halepense), lambsquarters (Chenopodium album), morningglory (Ipomoea coccinea), yellow nutsedge (Cyperus esculentus), pigweed (Amaranthus retroflexus), ragweed (common ragweed, Ambrosia elatior), soybean (Glycine max), barnyardgrass (Echinochloa crus-galli), oilseed rape (Brassica napus), waterhemp (common waterhemp, Amaranthus rudis), kochia (Kochia scoparia), wild oat (Avena fatua), surinam grass (Brachiaria decumbens), foxtail, green (green foxtail, Setaria viridis), goosegrass (Eleusine indica), bromegrass, downy (downy bromegrass, Bromus tectorum), nightshade (eastern black nightshade, Solanum ptycanthum), cocklebur (common cocklebur, Xanthium strumarium), cupgrass, woolly (woolly cupgrass, Eriochloa villosa), bermudagrass (Cynodon dactylon), sunflower, (common oilseed sunflower, Helianthus annuus), Russian thistle (Salsola kali), and velvetleaf (Abutilon theophrasti) were planted into a blend of loam soil and sand and treated preemergence with test chemicals formulated in a non-phytotoxic solvent mixture which included a surfactant.
(§2) At the same time, plants selected from these crop and weed species and also barley, winter (winter barley, Hordeum vulgare), windgrass (Apera spica-venti), chickweed (common chickweed, Stellaria media), deadnettle (henbit deadnettle, Lamium amplexicaule), and canarygrass (littleseed canarygrass, Phalaris minor) were planted in pots containing Redi-Earth® planting medium (Scotts Company, 14111 Scottslawn Road, Marysville, Ohio 43041) comprising spaghnum peat moss, vermiculite, wetting agent and starter nutrients and treated with postemergence applications of test chemicals formulated in the same manner. Plants ranged in height from 2 to 18 cm (1- to 4-leaf stage) for postemergence treatments. Treated plants and controls were maintained in a greenhouse for 13 to 15 days, after which time all species were compared to controls and visually evaluated. Plant response ratings, summarized in Table C, are based on a scale of 0 to 100 where 0 is no effect and 100 is complete control. A dash (-) response means no test result.

[2] = test system: kochia; experiment: Test C preemergence; assay type: in vivo, Kochia scoparia; conditions: for Kochia plant response rating: preemergence, scale 0 (no effect) to 100 (complete control)
From the text: as §1, §2

[3] = test system: bromegrass, downy; experiment: Test C postemergence; assay type: in vivo, Bromus tectorum; conditions: for Plant response rating (0 to 100), Bromegrass, Downy: postemergence; for Plant response rating, Bromegrass, Downy: Postemergence, scale 0 to 100 (0 no effect, 100 complete control)
From the text: as §1, §2

[4] = test system: goosegrass; experiment: Test C postemergence; assay type: in vivo, Eleusine indica; conditions: for Plant response rating (0 to 100), Goosegrass: postemergence; for Plant response rating, Goosegrass: Postemergence, scale 0 to 100 (0 no effect, 100 complete control)
Outline: (§3)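 Seeds were sown in loam–sand blend and sprayed preemergence, while plants at 1- to 4-leaf stage (2–18 cm) in peat-based medium received postemergence sprays; test chemicals were formulated in a non-phytotoxic solvent with surfactant. After 13–15 days in a greenhouse, injury was rated visually against controls, 0 (no effect) to 100 (complete control).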

[5] = test system: smartweed; experiment: Test E postemergence; assay type: in vivo, ladysthumb smartweed
From the text: (§4) Seeds of plant species selected from corn (Zea mays), soybean (Glycine max), velvetleaf (Abutilon theophrasti), lambsquarters (Chenopodium album), wild poinsettia (Euphorbia heterophylla), palmer pigweed (Amaranthus palmeri), waterhemp (common waterhemp, Amaranthus rudis), surinam grass (Brachiaria decumbens), large (Lg) crabgrass (Digitaria sanguinalis), Brazilian crabgrass (Digitaria horizontalis), fall panicum (Panicum dichotomiflorum), giant foxtail (Setaria faberii), green foxtail (Setaria viridis), goosegrass (Eleusine indica), johnsongrass (Sorghum halepense), ragweed (common ragweed, Ambrosia elatior), barnyardgrass (Echinochloa crus-galli), sandbur (southern sandbur, Cenchrus echinatus), arrowleaf sida (Sida rhombifolia), Italian ryegrass (Lolium multiflorum), dayflower (Virginia (VA) dayflower, Commelina virginica), field bindweed (Convolvulus arvensis), morningglory (Ipomoea coccinea), nightshade (eastern black nightshade, Solanum ptycanthum), kochia (Kochia scoparia), yellow nutsedge (Cyperus esculentus), cocklebur (common cocklebur, Xanthium strumarium), smartweed (ladysthumb smartweed, and hairy beggarticks (Bidens pilosa), were planted into a silt loam soil and treated preemergence with test chemicals formulated in a non-phytotoxic solvent mixture which included a surfactant.
(§5) At the same time, plants from these crop and weed species and also horseweed (Canada horseweed, Conyza canadensis), waterhemp_RES1, (ALS & Triazine resistant common waterhemp, Amaranthus rudis), and waterhemp_RES2, (ALS & HPPD resistant common waterhemp, Amaranthus rudis) were planted in pots containing Redi-Earth® planting medium (Scotts Company, 14111 Scottslawn Road, Marysville, Ohio 43041) comprising spaghnum peat moss, vermiculite, wetting agent and starter nutrients were treated with postemergence applications of test chemicals formulated in the same manner. Plants ranged in height from 2 to 18 cm for postemergence treatments (1- to 4-leaf stage). Treated plants and controls were maintained in a greenhouse for 14 to 21 days, after which time all species were compared to controls and visually evaluated. Plant response ratings, summarized in Table E, are based on a scale of 0 to 100 where 0 is no effect and 100 is complete control. A dash (-) response means no test result.

[6] = test system: windgrass; experiment: Test C postemergence; assay type: in vivo, Apera spica-venti; conditions: for Plant response rating (0 to 100), Windgrass: postemergence; for Plant response rating, Windgrass: Postemergence, scale 0 to 100 (0 no effect, 100 complete control)
From the text: as §1, §2

[7] = test system: canarygrass; experiment: Test C postemergence; assay type: in vivo, Phalaris minor; conditions: for Plant response rating (0 to 100), Canarygrass: postemergence; for Plant response rating, Canarygrass: Postemergence, scale 0 to 100 (0 no effect, 100 complete control)
From the text: as §1, §2

[8] = test system: foxtail, green; experiment: Test C postemergence; assay type: in vivo, Setaria viridis; conditions: for Plant response rating (0 to 100), Foxtail, Green: postemergence
From the text: as §1, §2

[9] = test system: cocklebur; experiment: Test C postemergence; assay type: in vivo, Xanthium strumarium; conditions: for Plant response rating (0 to 100), Cocklebur: postemergence; for Plant response rating, Cocklebur: Postemergence, scale 0 to 100 (0 no effect, 100 complete control)
Outline: as §3

[10] = test system: bromegrass, downy; experiment: Test C preemergence; assay type: in vivo, Bromus tectorum; conditions: for Bromegrass, Downy plant response rating: preemergence, scale 0 (no effect) to 100 (complete control)
From the text: as §1, §2

[11] = test system: waterhemp_RES1 (ALS & Triazine resistant common waterhemp); experiment: Test E postemergence; assay type: in vivo, Amaranthus rudis
Outline: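 Test chemicals formulated in a non-phytotoxic solvent mixture containing a surfactant were applied preemergence to seeds in silt loam soil or postemergence to plants at the 1- to 4-leaf stage in potting mix. After 14 to 21 days in a greenhouse, injury was visually rated against controls on a 0-100 scale (0 = no effect, 100 = complete control).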

[12] = test system: palmer pigweed; experiment: Test E postemergence; assay type: in vivo, Amaranthus palmeri; conditions: post-emergence, read-out: Plant response rating, Pigweed, Palmer
From the text: as §4, §5

[13] = test system: barley, winter; experiment: Test C postemergence; assay type: in vivo, Hordeum vulgare; conditions: for Plant response rating (0 to 100), Barley: postemergence; for Plant response rating, Barley: Postemergence, scale 0 to 100 (0 no effect, 100 complete control)
From the text: as §1, §2

[14] = Preemergence, 31 g ai/ha, scale 0 to 100, 0 no effect, 100 complete control
[15] = Postemergence, 31 g ai/ha, scale 0 to 100
[16] = Postemergence, 62 g ai/ha, scale 0 to 100
[17] = Postemergence, 125 g ai/ha, scale 0 to 100
[18] = postemergence, 8 g ai/ha, scale 0 to 100, 0 no effect, 100 complete control
[19] = postemergence, 16 g ai/ha, scale 0 to 100, 0 no effect, 100 complete control

Clc1cnc(Oc2ccccc2-n2cc(Br)cn2)nc1 [Compound 7, 2-[2-(4-bromo-1H-pyrazol-1-yl)phenoxy]-5-chloropyrimidine]
Oat, Wild plant response rating ([1]; 62 g ai/ha): 5
Oat, Wild plant response rating ([1]; 125 g ai/ha): 50
Oat, Wild plant response rating ([1]; 250 g ai/ha): 80
Plant response rating, Oat, Wild [1, 14]: 0
Kochia plant response rating ([2]; 62 g ai/ha): 95
Kochia plant response rating ([2]; 125 g ai/ha): 100
Kochia plant response rating ([2]; 250 g ai/ha): 100
Plant response rating, Kochia [2, 14]: 55
Plant response rating (0 to 100), Bromegrass, Downy ([3]; 125 g ai/ha): 10
Plant response rating (0 to 100), Bromegrass, Downy ([3]; 250 g ai/ha): 10
Plant response rating, Bromegrass, Downy ([3]; 31 g ai/ha, 13 to 15 days): 5
Plant response rating, Bromegrass, Downy ([3]; 62 g ai/ha): 5
Plant response rating (0 to 100), Goosegrass ([4]; 125 g ai/ha): 15
Plant response rating (0 to 100), Goosegrass ([4]; 250 g ai/ha): 15
Plant response rating, Goosegrass ([4]; 31 g ai/ha, 13 to 15 days): 0
Plant response rating, Goosegrass ([4]; 62 g ai/ha): 5
Plant response rating, Smartweed [5, 15]: 40
Plant response rating, Smartweed [5, 16]: 70
Plant response rating, Smartweed [5, 17]: 100
Plant response rating, Smartweed [5, 18]: 15
Plant response rating, Smartweed [5, 19]: 30
Plant response rating (0 to 100), Windgrass ([6]; 125 g ai/ha): 55
Plant response rating (0 to 100), Windgrass ([6]; 250 g ai/ha): 80
Plant response rating, Windgrass ([6]; 31 g ai/ha, 13 to 15 days): 10
Plant response rating, Windgrass ([6]; 62 g ai/ha): 55
Plant response rating (0 to 100), Canarygrass ([7]; 125 g ai/ha): 30
Plant response rating (0 to 100), Canarygrass ([7]; 250 g ai/ha): 80
Plant response rating, Canarygrass ([7]; 31 g ai/ha, 13 to 15 days): 5
Plant response rating, Canarygrass ([7]; 62 g ai/ha): 10
Plant response rating (0 to 100), Foxtail, Green ([8]; 125 g ai/ha): 50
Plant response rating (0 to 100), Foxtail, Green ([8]; 250 g ai/ha): 98
Plant response rating, Foxtail, Green ([8]; Postemergence, 31 g ai/ha, scale 0 to 100 (0 no effect, 100 complete control), 13 to 15 days): 0
Plant response rating (0 to 100), Cocklebur ([9]; 125 g ai/ha): 55
Plant response rating (0 to 100), Cocklebur ([9]; 250 g ai/ha): 80
Plant response rating, Cocklebur ([9]; 31 g ai/ha, 13 to 15 days): 35
Plant response rating, Cocklebur ([9]; 62 g ai/ha): 45
Bromegrass, Downy plant response rating ([10]; 62 g ai/ha): 5
Bromegrass, Downy plant response rating ([10]; 125 g ai/ha): 45
Bromegrass, Downy plant response rating ([10]; 250 g ai/ha): 75
Plant response rating, Bromegrass, Downy [10, 14]: 0
Plant response rating, Waterhemp_RES1 [11, 15]: 80
Plant response rating, Waterhemp_RES1 [11, 16]: 95
Plant response rating, Waterhemp_RES1 [11, 17]: 90
Plant response rating, Waterhemp_RES1 [11, 18]: 65
Plant response rating, Waterhemp_RES1 [11, 19]: 70
pest or weed control at 31 g/ha [12, 15]: 50%
pest or weed control at 62 g/ha [12, 16]: 75%
pest or weed control at 125 g/ha [12, 17]: 85%
pest or weed control at 8 g/ha [12, 18]: 40%
pest or weed control at 16 g/ha [12, 19]: 60%
Plant response rating (0 to 100), Barley ([13]; 125 g ai/ha): 10
Plant response rating (0 to 100), Barley ([13]; 250 g ai/ha): 15
Plant response rating, Barley ([13]; 31 g ai/ha, 13 to 15 days): 0
Plant response rating, Barley ([13]; 62 g ai/ha): 0
